The numbers were not newly measured in patent US5393873A, “Peptides with anticoagulant activity” (BASF Aktiengesellschaft, priority 1991, dated 1995), which cites them from elsewhere.

This data set concerns the target thrombin (Homo sapiens, UniProt P00734).

“Val-Val-Tyr-Thr-Asp-Cys-Thr-Glu-Ser-Gly-Gln-Asn-Leu-Cys-Leu-Cys-Glu-Gly-Ser-Asn-Val-Cys-Gly-Gln-Gly-Asn-Lys-Cys-Ile-Leu-Gly-Ser-Asp-Gly-Glu-Lys-Asn-Gly-Cys-Val-Thr-Gly-Glu-Gly-Thr-Pro-Lys-Pro-Gln-Ser-His-Asn-Asp-Gly-Asp-Phe-Glu-Glu-Ile-Pro-Glu-Glu-Tyr(SO3 H)-Leu-Gln [Hirudin]”: the binding to thrombin result is on record as “very strongly”.
